From the NIST ThermoML archive (doi:10.1021/je201354k)
Numbers after ± are expanded uncertainties.

What was measured:
[1] = Crystal; DTA
[2] = Molar enthalpy of transition or fusion; conditions: Crystal; DSC

Triple point temperature [1]: 556.15 ± 0.5 K
Molar enthalpy of transition or fusion [2]: 4.41 ± 0.136 kcal/mol
Structure (SMILES): N[C@@H](Cc1ccccc1)C(=O)O [L-phenylalanine]
